Each structure is given as a SMILES string. The source made the active and inactive calls. The calls are words filed in the database; no cut-off is given here.

This is an account of results in ChEMBL document CHEMBL3861969, “Acredinone C and the Effect of Acredinones on Osteoclastogenic and Osteoblastogenic Activity” (J Nat Prod, 2016).

In data set [1] the test system is BMDM. Description: Inhibition of RANKL-induced TRAP mRNA expression in mouse BMDM cells at 10 uM preincubated with cells followed by RANKL addition measured after 2 days by real-time PCR analysis. The data set is classed as functional, cell-based. A general note: Real-time PCR tracks product formation cycle by cycle.
In data set [2] the test system is BMDM. Description: Inhibition of RANKL-induced DC-STAMP mRNA expression in mouse BMDM cells at 10 uM preincubated with cells followed by RANKL addition measured after 2 days by real-time PCR analysis. The format is functional, cell-based.
Data set [3] relates to BMDM. As to the kind of experiment: Inhibition of RANKL-induced OSCAR mRNA expression in mouse BMDM cells at 10 uM preincubated with cells followed by RANKL addition measured after 2 days by real-time PCR analysis. The data set is classed as functional, cell-based.
The subject of data set [4] is BMDM. Description: Inhibition of RANKL-induced mouse BMDM cell differentiation assessed as TRAP-positive MNCs at 0.1 to 10 uM preincubated for 5 mins followed by RANKL/M-CSF addition measured after 4 days by TRAP-staining based assay. The format is functional.
The subject of data set [5] is BMDM. As to the kind of experiment: Inhibition of RANKL-induced cathespin K mRNA expression in mouse BMDM cells at 10 uM preincubated with cells followed by RANKL addition measured after 2 days by real-time PCR analysis. The format is functional, cell-based.
The target in data set [6] is MAP kinase p38 (Mus musculus) (UniProt P47811+O08911+Q9WUI1+Q9Z1B7). As to the kind of experiment: Inhibition of RANKL-induced p38 phosphorylation in mouse BMDM cells assessed as ratio of phosphorylated p38 to p38 at 10 uM preincubated for 5 mins followed RANKL/M-CSF addition for 5 mins by Western blot analysis (reference value: 24.7). The data set is classed as cell-based. In general terms: A western blot detects proteins with antibodies after separation by electrophoresis.

For data set [7], the system named is BMDM. As to the kind of experiment: Inhibition of RANKL-induced mouse BMDM cell differentiation assessed as reduction in TRAP activity at 0.1 to 30 uM using p-nitrophenyl phosphate as substrate preincubated for 5 mins followed by RANKL/M-CSF addition measured after 4 days. The data set is classed as functional, cell-based.
The subject of data set [8] is BMDM. Description: Inhibition of RANKL-induced c-Src mRNA expression in mouse BMDM cells at 10 uM preincubated with cells followed by RANKL addition measured after 2 days by real-time PCR analysis. The format is functional, cell-based.
Data set [9] in a line: Inhibition of RANKL-induced NFATc1 expression in mouse BMDM cells assessed as ratio of NFATc1 to actin at 10 uM preincubated with cells followed RANKL/M-CSF addition measured after 1day by Western blot analysis (reference value: 281). The data set is classed as functional.
Data set [10] addresses Mitogen-activated protein kinase 9 (Mus musculus) (UniProt Q9WTU6). Description: Inhibition of RANKL-induced JNK2 phosphorylation in mouse BMDM cells assessed as ratio of phosphorylated JNK2 to JNK2 at 10 uM preincubated for 5 mins followed RANKL/M-CSF addition for 5 mins by Western blot analysis (reference value: 5.2). The data set is classed as cell-based.
Data set [11] deals with Mitogen-activated protein kinase 8 (Mus musculus) (UniProt Q91Y86). As to the kind of experiment: Inhibition of RANKL-induced JNK1 phosphorylation in mouse BMDM cells assessed as ratio of phosphorylated JNK1 to JNK1 at 10 uM preincubated for 5 mins followed RANKL/M-CSF addition for 5 mins by Western blot analysis (reference value: 3.7). The data set is classed as cell-based.
Mitogen-activated protein kinase 8 (Mus musculus), sequence (Q91Y86 whole entry): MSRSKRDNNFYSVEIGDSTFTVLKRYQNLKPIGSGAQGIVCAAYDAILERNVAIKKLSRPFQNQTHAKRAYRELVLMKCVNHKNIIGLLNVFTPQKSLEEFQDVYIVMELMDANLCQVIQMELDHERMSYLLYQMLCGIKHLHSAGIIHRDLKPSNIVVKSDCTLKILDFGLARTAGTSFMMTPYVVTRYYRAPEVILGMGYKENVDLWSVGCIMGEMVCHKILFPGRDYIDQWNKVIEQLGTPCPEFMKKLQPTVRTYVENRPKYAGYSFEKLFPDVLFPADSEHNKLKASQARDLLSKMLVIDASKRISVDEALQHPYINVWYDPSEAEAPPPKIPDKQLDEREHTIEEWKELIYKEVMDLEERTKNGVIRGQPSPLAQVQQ

Another data set has as its system C2C12. As to the kind of experiment: Induction of BMP2-induced osteoblast differentiation in mouse C2C12 cells assessed as increase in ALP mRNA expression at 10 uM preincubated with cells followed by BMP2 addition measured after 3 days by real-time PCR analysis. The format is functional, cell-based.
The species entered for data set [12] is Mus musculus. As to the kind of experiment: Cytotoxicity against mouse BMDM cells assessed as reduction in cell viability up to 10 uM after 3 days in presence of M-CSF by CCK-8 assay. The data set is classed as toxicity, cell-based. To be noted: 72 h.
The species named for data set [13] is Mus musculus. Description: Cytotoxicity against mouse C2C12 cells assessed as reduction cell viability after 3 days in presence of BMP2 by CCK-8 assay. The data set is classed as toxicity, cell-based. The conditions noted are these: c2c12, 72 h. (In general: Tetrazolium assays rely on reduction of a dye to a coloured formazan, in cell work by metabolically active cells.)

For data set [14], the target named is T1, NF-kappa-B inhibitor alpha (Mus musculus) (UniProt Q9Z1E3).
T1 sequence (whole entry): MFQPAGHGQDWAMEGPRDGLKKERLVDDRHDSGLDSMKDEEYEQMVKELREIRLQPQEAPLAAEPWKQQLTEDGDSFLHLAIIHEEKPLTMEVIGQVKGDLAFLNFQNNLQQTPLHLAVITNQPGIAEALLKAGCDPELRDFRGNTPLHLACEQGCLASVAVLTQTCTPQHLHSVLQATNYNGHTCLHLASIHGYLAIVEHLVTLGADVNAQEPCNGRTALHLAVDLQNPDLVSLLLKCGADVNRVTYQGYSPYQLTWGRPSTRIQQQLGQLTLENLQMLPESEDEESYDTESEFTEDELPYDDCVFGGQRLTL
As to the kind of experiment: Inhibition of RANKL-induced IkBalpha phosphorylation in mouse BMDM cells at 10 uM preincubated for 5 mins followed RANKL/M-CSF addition for 5 mins by Western blot analysis. The data set is classed as cell-based.

The nature of data set [15]: Inhibition of RANKL-induced c-Fos expression in mouse BMDM cells assessed as ratio of c-Fos to actin at 10 uM preincubated with cells followed RANKL/M-CSF addition measured after 1 day by Western blot analysis (reference value: 6.4). The data set is classed as functional.
The test system of a further data set is Osteoclast. As to the kind of experiment: Inhibition of RANKL-induced mouse BMDM cell differentiation assessed as reduction in TRAP-positive multi-nucleated osteoclast cells preincubated for 5 mins followed by RANKL/M-CSF addition measured after 4 days by light microscopic analysis. The data set is classed as functional, cell-based.
Data set [16] has as its system BMDM. Description: Inhibition of RANKL-induced NFATc1 mRNA expression in mouse BMDM cells at 10 uM preincubated with cells followed by RANKL addition measured after 2 days by real-time PCR analysis. The data set is classed as functional, cell-based.
Data set [17] addresses Mitogen-activated protein kinase 1 (Mus musculus) (UniProt P63085). As to the kind of experiment: Inhibition of RANKL-induced ERK2 phosphorylation in mouse BMDM cells assessed as ratio of phosphorylated ERK2 to ERK2 at 10 uM preincubated for 5 mins followed RANKL/M-CSF addition for 5 mins by Western blot analysis (reference value: 2.6). The data set is classed as cell-based.

For data set [18], the target named is RAC-alpha serine/threonine-protein kinase (Mus musculus) (UniProt P31750). Description: Inhibition of RANKL-induced AKT phosphorylation in mouse BMDM cells assessed as ratio of phosphorylated AKT to AKT at 10 uM preincubated for 5 mins followed RANKL/M-CSF addition for 5 mins by Western blot analysis (reference value: 2.1). The format is cell-based.
RAC-alpha serine/threonine-protein kinase (Mus musculus), sequence (P31750 whole entry): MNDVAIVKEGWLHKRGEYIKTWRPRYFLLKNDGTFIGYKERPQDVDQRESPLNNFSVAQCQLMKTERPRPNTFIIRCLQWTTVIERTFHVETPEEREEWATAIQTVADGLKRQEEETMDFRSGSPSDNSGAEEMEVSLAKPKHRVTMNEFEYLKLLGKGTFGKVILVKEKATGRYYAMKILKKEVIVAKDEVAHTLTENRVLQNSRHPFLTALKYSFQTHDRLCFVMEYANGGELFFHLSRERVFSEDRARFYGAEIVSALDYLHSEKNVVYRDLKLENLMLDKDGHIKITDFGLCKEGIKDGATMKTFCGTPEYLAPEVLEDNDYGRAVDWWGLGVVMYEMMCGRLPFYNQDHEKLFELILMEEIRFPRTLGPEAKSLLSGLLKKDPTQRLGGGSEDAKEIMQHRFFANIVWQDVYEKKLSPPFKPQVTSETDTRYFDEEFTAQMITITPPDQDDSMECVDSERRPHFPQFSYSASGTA
Data set [19] has as its target Mitogen-activated protein kinase 3 (Mus musculus) (UniProt Q63844). Description: Inhibition of RANKL-induced ERK1 phosphorylation in mouse BMDM cells assessed as ratio of phosphorylated ERK1 to ERK1 at 10 uM preincubated for 5 mins followed RANKL/M-CSF addition for 5 mins by Western blot analysis (reference value: 2.9). The format is cell-based.
The subject of data set [20] is BMDM. Description: Inhibition of RANKL-induced mouse BMDM cell differentiation assessed as TRAP-positive MNCs at 0.1 to 30 uM preincubated for 5 mins followed by RANKL/M-CSF addition measured after 4 days by TRAP-staining based assay. The format is functional.
Data set [21] is filed under the species Mus musculus. Description: Cytotoxicity against mouse BMDM cells assessed as reduction in cell viability at 30 uM after 3 days in presence of M-CSF by CCK-8 assay. The data set is classed as toxicity, cell-based. To be noted: 72 h.

Mitogen-activated protein kinase 1 (Mus musculus), sequence (P63085 whole entry): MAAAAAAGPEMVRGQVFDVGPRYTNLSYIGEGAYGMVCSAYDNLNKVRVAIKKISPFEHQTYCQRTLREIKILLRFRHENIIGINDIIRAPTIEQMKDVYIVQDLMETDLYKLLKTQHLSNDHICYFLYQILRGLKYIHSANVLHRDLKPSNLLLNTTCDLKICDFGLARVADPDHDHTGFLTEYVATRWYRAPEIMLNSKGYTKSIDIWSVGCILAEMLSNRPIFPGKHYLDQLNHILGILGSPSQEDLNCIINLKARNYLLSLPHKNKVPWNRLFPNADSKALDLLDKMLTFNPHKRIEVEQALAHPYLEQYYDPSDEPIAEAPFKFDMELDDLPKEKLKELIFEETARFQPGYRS
Mitogen-activated protein kinase 9 (Mus musculus), sequence (Q9WTU6 whole entry): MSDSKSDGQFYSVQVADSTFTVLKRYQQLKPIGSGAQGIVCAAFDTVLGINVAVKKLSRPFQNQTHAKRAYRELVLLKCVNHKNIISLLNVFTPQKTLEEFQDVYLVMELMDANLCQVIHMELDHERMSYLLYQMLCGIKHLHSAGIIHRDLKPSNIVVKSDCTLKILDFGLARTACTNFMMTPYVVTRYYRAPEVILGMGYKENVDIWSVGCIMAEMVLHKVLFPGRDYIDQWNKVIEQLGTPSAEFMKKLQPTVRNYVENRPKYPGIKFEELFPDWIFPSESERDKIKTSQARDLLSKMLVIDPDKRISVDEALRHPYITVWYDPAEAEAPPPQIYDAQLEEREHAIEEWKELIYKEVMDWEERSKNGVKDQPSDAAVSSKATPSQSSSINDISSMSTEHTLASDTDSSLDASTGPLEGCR
Mitogen-activated protein kinase 3 (Mus musculus), sequence (Q63844 whole entry): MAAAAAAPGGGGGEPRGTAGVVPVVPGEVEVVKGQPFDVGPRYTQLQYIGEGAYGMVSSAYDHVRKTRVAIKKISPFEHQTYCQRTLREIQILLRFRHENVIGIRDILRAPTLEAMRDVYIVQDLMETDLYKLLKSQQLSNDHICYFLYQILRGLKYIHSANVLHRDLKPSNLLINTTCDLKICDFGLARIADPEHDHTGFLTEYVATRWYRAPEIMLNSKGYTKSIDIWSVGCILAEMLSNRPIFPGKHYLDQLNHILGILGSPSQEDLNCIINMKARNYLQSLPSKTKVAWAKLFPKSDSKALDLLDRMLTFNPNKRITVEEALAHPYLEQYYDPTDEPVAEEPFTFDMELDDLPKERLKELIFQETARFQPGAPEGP

With `COc1cccc(OC)c1C(=O)c1c(O)cc(C)c(OC)c1C(=O)Cc1c(OC)c(C)cc2oc3cccc(OC)c3c(=O)c12`, the inhibition result in the data set with BMDM [1], in the data set with BMDM [2], with BMDM [3], in the data set on BMDM [4], in the data set with BMDM [5] and in the data set with BMDM [7] was “Active” each time. Besides, the inhibition entry (with BMDM [8]; in [14]; in the data set with BMDM [16]; in the data set on BMDM [20]) was “Active” throughout. Further, the fold change (FC) is 8.2 in data set [6]; 85 in data set [9]; 3.7 in data set [10]; 2.2 in data set [11]; 2.4 in [15]; 2.6 in data set [17]. Moreover, the figures for the fold change (FC) in [18] and in data set [19] were 1.7 and 3.3, respectively. Moreover, in the data set on C2C12, the outcome was Active. The Activity entry in the data set filed under Mus musculus [12] and in the data set filed under Mus musculus [13] was “Non-Toxic” throughout. Besides, in the data set on Osteoclast, the inhibition entry was “Dose-dependent effect”.

On to `COc1cccc(OC)c1C(=O)c1c(O)cc(C)c(OC)c1CC(=O)c1c(OC)c(C)cc(O)c1C(=O)c1c(OC)cccc1OC`, for which the inhibition entry with BMDM [1], in the data set with BMDM [2], in the data set with BMDM [3], in the data set on BMDM [4], in the data set with BMDM [5] and with BMDM [7] was “Active” throughout. In addition, the inhibition result (in the data set with BMDM [8]; in data set [14]; in the data set on BMDM [16]; in the data set on BMDM [20]) was “Active” in each case. The fold change (FC) in [6] came to 20.2; in data set [9], 124; in data set [10], 4.2; in [11] it was 2.7; in [15] it was 3.5; in [17] it was 1.7. Moreover, the fold change (FC) in data set [18] is 1.1; in data set [19], 2.1. In addition, the Activity result in the data set listed under Mus musculus [21] was “Toxic”; in the data set listed under Mus musculus [12] it was “Non-Toxic”; in the data set filed under Mus musculus [13] it was “Non-Toxic”. Besides, in the data set with C2C12, the outcome was Active. In the data set on Osteoclast, the inhibition result is “Dose-dependent effect”.
